Laboratory results from PubChem BioAssay (NCI).
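Following 48 hours of exposure in 96-well plates, responses at five concentrations were used to interpolate endpoints linearly. TGI: concentration producing complete growth inhibition.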 Where a SMILES comes first, the peptide text is derived from it. [ ]: non-standard residue; d: D form. The star is where a group is joined. Cbz = O=C(OCc1ccccc1)*; Boc = CC(C)(C)OC(=O)*; Aib = CC(C)(N)C(=O)O; OBn = c1ccc(CO*)cc1; OtBu = CC(C)(C)O*; βAla = NCCC(=O)O

Assays:
Experiment in all cases: NCI-60 cell line screen, 48 h
MALME-3M melanoma = test system: MALME-3M melanoma
TK-10 renal = test system: TK-10 renal
SNB-19 CNS = test system: SNB-19 CNS
HCC-2998 colon = test system: HCC-2998 colon
HT29 colon = test system: HT29 colon
BT-549 breast = test system: BT-549 breast
UACC-257 melanoma = test system: UACC-257 melanoma
SK-OV-3 ovarian = test system: SK-OV-3 ovarian
PC-3 prostate = test system: PC-3 prostate
OVCAR-4 ovarian = test system: OVCAR-4 ovarian

Structure (SMILES)	TGI (MALME-3M melanoma) [µM]	TGI (TK-10 renal) [µM]	TGI (SNB-19 CNS) [µM]	TGI (HCC-2998 colon) [µM]	TGI (HT29 colon) [µM]	TGI (BT-549 breast) [µM]	TGI (UACC-257 melanoma) [µM]	TGI (SK-OV-3 ovarian) [µM]	TGI (PC-3 prostate) [µM]	TGI (OVCAR-4 ovarian) [µM]
O=C(NCCNCCO)N/N=C/c1ccc(Cl)cc1	> 100	> 100	> 100	> 100	> 100	> 100	> 100	> 100	> 100	–
CSc1ncc2c(n1)-c1ccccc1OC2N1CCCC1 (stereo not given)	–	> 100	> 100	–	> 100	> 100	> 100	> 100	> 100	> 100
O=C1[C@@H]2Cc3c([nH]c4ccccc34)C(C3CCCCC3)N2C(=O)[C@@H]2CCCN12 (stereo not given in full)	51.1	> 100	> 100	–	73.4	88	80.7	> 100	60.6	> 100
CSc1nncc(-c2cc3c(c(SC)n2)CCC3)n1	–	> 100	> 100	–	> 100	> 100	> 100	> 100	> 100	> 100
COc1ccc(OC)c2cc(Cc3ccc(N(C)C)cc3)c(=O)c(Cc3ccc(N(C)C)cc3)cc12	> 100	–	> 100	> 100	> 100	> 100	> 100	> 100	> 100	> 100
COC(=O)[C@@H]1N2C(=S)N(c3ccccc3)C(=O)[C@H]2SC1(C)C	–	> 100	> 100	> 100	> 100	> 100	> 100	> 100	> 100	> 100
OCCN=C1Nc2ccc(Cl)cc2C(=S)N2CSC[C@@H]12	> 100	–	> 100	> 100	> 100	–	–	> 100	> 100	> 100
CC(C)(C)OC(=O)CC(NC(=O)OC(C)(C)C)C(=O)NC(CCCCNC(=O)OCc1ccccc1)C(=O)NC(C)(C)C(=O)NCCC(=O)OCc1ccccc1 (stereo not given) (Boc-D(OtBu)K(Cbz)[Aib][βAla]-OBn; configuration not given here)	> 100	> 100	> 100	–	> 100	> 100	–	> 100	> 100	> 100
COC(=O)C(C)Sc1nc2cc(Cl)ccc2s1 (stereo not given)	> 100	–	> 100	> 100	> 100	> 100	> 100	> 100	> 100	> 100
C=C1C[C@]23C[C@@]1(O)CC[C@H]2[C@@]12C=C[C@H](O)[C@@](C)(C(=O)O1)[C@H]2[C@@H]3C(=O)O	> 100	> 100	> 100	> 100	> 100	–	> 100	> 100	–	> 100
O=C(N=Nc1ccccc1Br)NNc1ccccc1Br	> 100	> 100	> 100	56.6	> 100	> 100	> 100	–	> 100	> 100
O=C(NCCO)c1ccc(Cl)cc1	> 100	> 100	> 100	> 100	> 100	> 100	> 100	–	> 100	> 100
O=C(NNC(=S)Nc1ccccc1)c1csc(NC(=S)NC2CCCCC2)n1	> 100	> 100	–	> 100	> 100	> 100	56.8	> 100	> 100	–
COC(=O)c1cncc2c1CC1C3(C(=O)OC)C=NC(C4C(CO)=CCC43)C21C (stereo not given)	> 100	> 100	> 100	> 100	> 100	–	> 100	–	> 100	> 100
Cc1[nH]c(-c2ccccc2)c(-c2ccc(Cl)cc2)c1C(=O)ONC(=O)c1ccccc1	23.5	9.76	19.3	16.2	22.9	9.94	20.8	32.4	17.2	–
NC(=O)CC(Nc1ncc2c(n1)-c1ccccc1OC2)C(=O)O (stereo not given)	> 100	> 100	> 100	–	> 100	–	> 100	> 100	> 100	> 100
O=c1[nH]nc(Cc2ccc(Cl)cc2)n1O	> 100	> 100	> 100	> 100	> 100	–	> 100	> 100	> 100	> 100
CC1(C)C2CC(c3ccncc3)ON2C(C)(C)N1O (stereo not given)	> 100	> 100	> 100	> 100	> 100	–	> 100	> 100	> 100	> 100
COc1cc2ccnc3c2c(c1O)N(C)C=C3	21.7	32.9	> 62.9	48.2	–	22.9	32.5	27.4	29.5	32.4
NC(CCCCNC(=O)OCc1ccccc1)C(=O)NC(CCCCNC(=O)OCc1ccccc1)C(=O)ON1C(=O)CCC1=O (stereo not given)	> 100	> 100	> 100	> 100	> 100	> 100	> 100	–	> 100	–
OC1OC(c2ccco2)C(F)(F)C(F)(F)C1(F)F (stereo not given)	> 100	> 100	> 100	–	> 100	> 100	> 100	> 100	> 100	> 100
COC(=O)C(COC(=O)/C=C/c1ccc(OC(C)=O)c(OC(C)=O)c1)OC(=O)/C=C/c1ccc(OC(C)=O)c(OC(C)=O)c1 (stereo not given)	45.6	32.8	22.2	43.4	19.7	33.5	29.9	–	23.4	35.1
CCOC(=O)C(C(=O)Cc1ccccc1)c1ccccc1 (stereo not given)	> 100	> 100	> 100	–	> 100	–	> 100	> 100	–	> 100
